One data set has as its system ADSL in HeLa cells. Put plainly: Cellular SAICAR, AICAR, S-AMP and AMP levels by HILIC-HPLC-MS. The data set is classed as cell-based, human. The following applies: 12 h, triethylammonium salt form. Here is the method: Cellular experiments and the measurement of nucleotides were carried out as we previously reported. […] The media were removed, and cells were washed five times with Dulbecco’s phosphate-buffered saline. Cells were lysed in ice-cold extraction solvent (95% methanol with 10 mM triethylammonium bicarbonate). The lysates were transferred to a centrifuge tube. Debris was removed by centrifugation at 150,000× g for 10 min at 4 °C. The supernatant was passed through Amicon Ultracel centrifugal filters (molecular weight cut-off 3 kDa). The filtrates were dried in vacuum and dissolved in 0.10 mL of extraction solvent. A 10 μL portion of this solution was subjected to HILIC-MS as we previously described. To measure cell proliferation, cells were detached by trypsin-EDTA and counted using a Moxi-Z cell counter as we previously described.
Next, we asked whether 1 inhibits ADSL in mammalian cells. […] Cells were lysed, and the amounts of SAICAR and S-AMP were measured by HILIC-HPLC-MS as we previously reported (Figure 6).

The nature of data set [1]: Permeability through an in vitro model of blood-brain barrier. The format is in vitro ADME. Particulars: Figure S7, n = 3. The source says:
(1 picture or pasted object on this page, not shown here)

The target of data set [2] is T1, recombinant human ADSL (Homo sapiens, UniProt P30566).
T1 construct: made in house
T1 sequence (P30566 1-484): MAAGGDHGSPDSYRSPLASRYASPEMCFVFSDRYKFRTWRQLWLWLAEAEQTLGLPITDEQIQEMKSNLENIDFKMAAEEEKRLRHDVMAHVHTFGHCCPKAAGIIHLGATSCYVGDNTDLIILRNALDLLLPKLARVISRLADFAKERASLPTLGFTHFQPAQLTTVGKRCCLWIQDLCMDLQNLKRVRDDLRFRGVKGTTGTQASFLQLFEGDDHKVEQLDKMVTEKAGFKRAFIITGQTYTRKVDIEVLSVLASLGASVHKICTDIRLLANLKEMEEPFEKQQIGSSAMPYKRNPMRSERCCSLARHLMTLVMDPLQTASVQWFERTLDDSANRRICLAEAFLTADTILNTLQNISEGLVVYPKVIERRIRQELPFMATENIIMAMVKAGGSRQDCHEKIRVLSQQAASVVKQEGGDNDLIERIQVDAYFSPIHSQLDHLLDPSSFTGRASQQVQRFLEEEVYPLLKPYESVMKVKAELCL
Put plainly: ADSL enzyme activity assay (A280). The format is biochemical. The following applies: for effect on ADSL in subsequent tests after the screen: follow-up of screening hits. The protocol: ADSL activity assays were performed as described in the literature. In brief, 0.60 mL solution containing recombinant human ADSL (0–2 μM), the test compound, 20 mM HEPES, pH 7.9, 50 mM KCl, 1 mM MgCl2, 1 mM DTT, and 1% DMSO was placed in a semi-micro quartz cuvette. This solution was kept at 37 °C for 30 min. The reaction was initiated by the addition of S-AMP or SAICAR to a final concentration of 0–2 mM (typically 0.20 mM). A280 was monitored every 5 s for 1 h using a Beckman DU650 spectrophotometer.

The target of data set [3] is T1, recombinant human ADSL. As to the kind of experiment: Screening of LOPAC 1280 compounds for ADSL inhibitors. The format is biochemical. The following applies: 2 µM compound, 0.2 µM ADSL, 0.2 mM S-AMP. Here is the method:
In each well of UV-transparent 384-well plates, a 45 μL solution containing 0.20 μM recombinant human ADSL and 2 μM screening compounds from the LOPAC 1280 library was placed. The reaction buffer contained 20 mM HEPES, pH 7.9, 50 mM KCl, 1 mM MgCl2, 1 mM DTT, and 1% (v/v) DMSO. Following a 30 min-long incubation at ambient temperature, the reaction was initiated by the addition of S-AMP (final: 0.20 mM). The reaction was monitored by measuring A280 every 10 min for 4 h at 37 °C.
To identify ADSL inhibitors, the effects of LOPAC® 1280 library compounds on the activity of recombinant human ADSL were measured (Figure 2A). […] ADSL activity was monitored by measuring changes in A280 for 4 h at 37 °C. Compounds inhibiting ADSL activity by more than three standard deviations (Z-score < −3, Figure 2A) were counted as hits.

The values below come from article PMC12641998, “Development of Cell-Permeable Adenylosuccinate Lyase Inhibitor” (Methods and Protocols, 2025).

Molecules are shown by their SMILES. Entries after “also recorded” stand apart in the source; their conditions may differ.

Turning to `O=C(Nc1ccccc1S(=O)(=O)O)c1cccc(C(=O)Nc2ccccc2S(=O)(=O)O)c1` [Compound 1, 2,2’-(1,3-phenylenebis(carbonylimino))bisbenzenesulfonate], in the data set with ADSL in HeLa cells, the “effect on the cellular level of S-AMP and AMP” value was “less effect”; the “increase of cellular level of SAICAR” value was “approximately 2.5 fold”; the “level of AICAR, lower by” value is reported as “approximately 30%”. In the data set on ADSL in HeLa cells (Homo sapiens, read-out: EC50, increase of cellular level of SAICAR), the EC50 (in general, the midpoint of the concentration-response curve) stood at 400 nM. Further, the “permeability through blood–brain barrier in vitro” value in data set [1] is listed as “limited permeability; also recorded: comparable to the low -permeability standard”.
Turning to `O=C(Nc1ccccc1)c1cccc(C(=O)Nc2ccccc2)c1` [Compound 3, N, N’-diphenylisopthalamide], the “inhibition of ADSL” value at recombinant human ADSL [2] (concentrations tested up to 30 μM) is on record as “did not inhibit ADSL”.
For `O=C(Nc1cc(C(=O)Nc2ccc(S(=O)(=O)O)cc2S(=O)(=O)O)cc(C(=O)Nc2ccc(S(=O)(=O)O)cc2S(=O)(=O)O)c1)Nc1cc(C(=O)Nc2ccc(S(=O)(=O)O)cc2S(=O)(=O)O)cc(C(=O)Nc2ccc(S(=O)(=O)O)cc2S(=O)(=O)O)c1` [NF-449], at recombinant human ADSL [2] (Lineweaver-Burk plot), the “mechanism of ADSL inhibition” value is given as “competitive”. For the same compound, on recombinant human ADSL [2] (Lineweaver-Burk plot, read-out: Ki, inhibition of ADSL), the Ki (commonly a dissociation constant, usually derived from enzyme kinetics or from competition with a known ligand) amounted to 240 nM. Further, the IC50 (usually the concentration needed to halve the response being measured) on recombinant human ADSL [2] (S-AMP as substrate (0.2 mM), read-out: IC50, inhibition of ADSL) is 1400 nM. Besides, the “screening outcome (hit: Z-score < −3)” value on recombinant human ADSL [3] was “might be an inhibitor of ADSL”.
As for `N=C(NO)NCCC[C@H](N)C(=O)O` [N^ω-hydroxyl-L-arginine], the “effect on ADSL in subsequent tests after the screen” value on recombinant human ADSL [2] is listed as “ADSL became aggregated”. Besides, on recombinant human ADSL [3], the “screening outcome (hit: Z-score < −3)” value was “potential ADSL inhibitors”.
The matching figures for `CCCCc1oc2ccccc2c1C(=O)c1cc(I)c(OCCN(CC)CC)c(I)c1` [amiodarone]: “did not inhibit ADSL” and “potential ADSL inhibitors”.
